Experimental data: a melting point compilation (Tetko et al.)

Compound	melting point [°C]
COc1ccc([N+](=O)[O-])cc1	54
CCOc1ccc(C(=S)N2CCOCC2)cc1OC	119
CC(CC(C)=NO)=NO	149
CCOC(=O)c1nc(-c2cncc(Br)c2)no1	101 to 103
CCCCCCCCCCCCC(C)O (configuration not stated)	34
CC(C)(C)OC(=O)NC1CCNC1 (configuration not stated)	67
CCS(=O)CCSP(=O)(OC)OC (configuration not stated)	-49
O=C(O)c1c(F)c(F)c(F)c(C(=O)O)c1F	209 to 213
Clc1ccc(OCCCI)cc1	31 to 33
CCC(=O)C(=O)CC	-10
CCNC(C)Cc1cccc(C(F)(F)F)c1 (configuration not stated)	110
Cc1cncc(N2CCNCC2)n1	49 to 51
S=C(NCCN1CCOCC1)NC1CCCCC1	125 to 126
CC12CCC(=O)C=C1CCC1C2C(O)CC2(C=O)C(C(=O)CO)CCC12 (configuration not stated)	167
Nc1ccccc1/C=C/c1cc(/C=C/c2cccc([N+](=O)[O-])c2)c([N+](=O)[O-])cc1[N+](=O)[O-]	250
CC12CCC(C(=CC(=O)O)C1=O)C2(C)C (configuration not stated)	106
CC(CCC(=O)O)C1CCC2C3CCC4CC(O)CCC4(C)C3CCC12C (configuration not stated)	186
COc1cc(C(=O)NCc2ccc(OCCN(C)C)cc2)cc(OC)c1OC	189
O=[N+]([O-])c1ccc(Br)s1	44
CC(=O)OC1CC[C@@]2(C)C(=CC[C@@H]3[C@@H]2CC[C@@]2(C)[C@H]3CC[C@]2(O)C#Cc2ccccc2)C1 (some centres not stated)	147 to 148
c1ccc2c(c1)OCCOCCOCCOCCOc1ccccc1OCCOCCOCCOCCO2	104 to 108
O=C(O)CC(Br)C(=O)O (racemic)	160 to 166
O=C(O)[C@@H]1CCCC[C@H]1C(=O)c1cccs1 (relative stereo)	179 to 184
COC(=O)C1=C(C(=O)OC)C2(CCl)c3ccccc3C1c1ccccc12	169

Compound	melting point [°C]
O=Cc1ccccc1N1CCN(Cc2ccccc2)CC1	58 to 60
c1coc(P(c2ccco2)c2ccco2)c1	62
CC1(C)OC(=O)C(=C2CCCN2)C(=O)O1	171 to 175
COC(=O)c1cnc(SC)nc1	96 to 97
CCS(=O)(=O)c1nc2ccccn2c1S(=O)(=O)NC(=O)Nc1nc(OC)cc(OC)n1	202
O=C(O)C=CC(=O)Nc1ccc(F)cc1F	191
CN1C(=O)CN=C(c2ccccc2)c2cc([N+](=O)[O-])ccc21	157
O=C1CN2CCOC2(c2ccccc2Cl)c2cc(Cl)ccc2N1 (configuration not stated)	203
OCc1c(F)ccc(F)c1Cl	47
Cc1c(C)c([N+](=O)[O-])c(C(C)(C)C)c([N+](=O)[O-])c1C	136
CN1CCN(c2ccccc2N)CC1	101 to 102
CCC(C)C(CC)C(N)=O (configuration not stated)	114
O=Cc1ccc2ccc3cccc4ccc1c2c34	127
Cc1ccc(C)n1-c1cc(Cl)c([N+](=O)[O-])cc1Cl	82 to 84
COc1ccc(CNc2ccc([N+](=O)[O-])c3nonc23)cc1	176 to 180
O=C(O)CCOc1ccc(Cl)cc1	136 to 137
CCC(=O)CC#N	29
OCc1ccnc(Cl)c1	65.5 to 67.5
COC(=O)[C@@H](CC(=O)O)C1CCCCC1	47.9
CCOC(=O)C1(C)OC(=O)N(c2cc(Cl)cc(Cl)c2)C1=O (configuration not stated)	113
CC(=O)OC1CCC2(C)C(CCC3C4CC=C(C#Cc5ccccc5)C4(C)CCC32)C1 (configuration not stated)	152 to 153
Cc1ccc2ccccc2c1N	32
O=C(Cl)c1ccccc1I	30 to 32
OCc1ccc(CN2CCOCC2)cc1	94

Compound	melting point [°C]
CCOc1ccc(Br)cc1C=O	69
Brc1cc(Br)c(Oc2ccc(Br)c(Br)c2)c(Br)c1	86 to 87
CC(C)(C)CC(=O)OCC(=O)C1(O)CCC2C3CCC4=CC(=O)CCC4(C)C3C(O)CC21C (configuration not stated)	168
OCC1OC(Oc2ccc3cc(Br)ccc3c2)C(O)C(O)C1O (configuration not stated)	218 to 220
COc1cc(C2OCC3C(c4ccc(OC(C)=O)c(OC)c4)OCC23)ccc1OC(C)=O (configuration not stated)	166
NC(=O)c1ccc(F)cc1Cl	152 to 154
CCCCCCCCC(=O)c1ccc(/N=N/c2ccc(OCC)cc2)cc1	63 to 108
CCCCCCCCCCCC[N+]1=C(C=Cc2cc([N+](=O)[O-])cc([N+](=O)[O-])c2[O-])C(C)(C)c2ccccc21	138
O=C(O)CCCCCCCO	51 to 57
COC(=O)C1(S(=O)(=O)c2ccc([N+](=O)[O-])cc2)CC1	127
CCOC(CNC(=O)C(N)=O)OCC	138 to 140
O=C(Nc1ccccc1)OC1C=CC=CC(OC(=O)Nc2ccccc2)C1 (configuration not stated)	181
O=C(NN=C1CCCCC1)C(=O)NN=C1CCCCC1	210
N#CCc1cc(Cl)ccc1[N+](=O)[O-]	87
CCOC(=O)c1c(C)cc(=O)oc1C	17 to 18
O=C(O)CCc1cc2c(cc1[N+](=O)[O-])CCC(=O)N2	258
N#CC=C(Cl)C#N	60.5
CC(=O)c1cnccn1	77
O=[N+]([O-])c1ccccc1CBr	47
NC(=O)C(CCN1CCCCCC1)(c1ccccc1)c1ccccc1	142
SCc1ccc(Br)cc1	27
CC(C)(C)c1cc(CC#N)cc(C(C)(C)C)c1O	111
CCC(C)[C@@H]1NC(=O)OC1=O (some centres not stated)	66

More lines, now with the values ahead:

melting point [°C]	Compound
156	Cc1nc(/C(C#N)=C/c2ccco2)sc1/N=N/c1c(Cl)cc(Cl)cc1Cl
49	O=C(c1ccccc1)N1CCCCC1
151 to 153	COc1ccccc1NC(=S)NN
47 to 48	Brc1ccc2sccc2c1
150 to 154	O=C1CC(c2ccccc2)=NO1
218	N#C/C(=N\Nc1ccc2ccccc2c1)c1nc(-c2ccc(Cl)cc2)cs1
104	COc1cc(C(c2ccc(C)o2)c2ccc(C)o2)c(O)cc1[N+](=O)[O-]
21.6	CCc1cccc(C)c1N(COC(C)C)C(=O)CCl
93	COc1cc(C)cc2c1C(=O)C2
268 to 269	O=C(O)C(c1ccccc1)(c1ccccc1)c1ccccc1
197	Cn1ccc2ccc(C(=O)O)cc21
143	O=C(COc1ccc(Cl)cc1)n1c(=O)sc2ccccc21
151	O=C1NCc2ccccc21
107 to 108	CC(C)CC1=CC(=Cc2ccc(-c3ccc(Br)cc3)o2)C(=O)O1
108	CCC(C)C(=O)NC1CCC(=O)N(CCc2ccccc2)C1=O (configuration not stated)
120	COc1ccccc1OCC(=O)O
68 to 70	ClCc1cccc(-c2ncccn2)c1
133 to 134	Cc1n[nH]c(C)c1-c1ccccc1
258	c1ccc2c(c1)ccc1c3ccccc3ccc21

melting point [°C]	Compound
210 to 212	C/C(C#Cc1ccccc1)=C/C(C)=N/Nc1ccc([N+](=O)[O-])cc1[N+](=O)[O-]
280	CC(C)(C)C(=O)Nc1ncccc1C(=O)O
242	Cc1cc(O)c(C)cc1N
89	OC1OC2(CCCCC2)Cc2ccccc21 (configuration not stated)
270 to 273	NC1=C(c2ccccc2)C(=O)c2ccccc21
76	CC(=O)CCc1oc2ccc(C)cc2c1-c1ccc(C)o1
223	CC(=O)Nc1ccc(Br)cc1C(=O)O
207	O=c1[nH]c2ccccc2n1-c1ccccc1
37 to 41	OCc1ccccc1Cc1ccccc1
201	CC(=Nn1c(S)nnc1C(F)(F)F)c1ccc(C)cc1
50	Cc1cc(Br)cc(C)c1N
122	Cc1ccc2[nH]c(C)c(C)c2c1
115 to 118	Nc1ccc(-c2cccnc2)cc1
137 to 139	CC(CC(=O)c1ccc(Cl)cc1)C(=O)O (configuration not stated)
200	O=C(O)c1ccc(-c2ccco2)nc1
166 to 168	CC(C)(C)OC(=O)c1n[nH]c2nc(F)ccc12
301 to 302	O=C1NC(=O)c2cccc3cccc1c23
7.7	Cc1ccc(C)[nH]1
249	CC(=O)Nc1cccc2c1ccc1nc(-c3ccccc3)c(-c3ccccc3)nc12

melting point [°C]	Compound
165	CN(C)c1ccc(C(Cl)=NO)cc1
170	COc1ccccc1-c1ccc(/C=C2\N=C(c3ccccc3)OC2=O)o1
309 to 311	O=C(O)c1ccc(-n2ccnc2)cc1
150 to 152	CCOC(=O)c1c(NC(=O)Nc2ccccc2)sc2c1CCCC2
209 to 212	COc1cccc(C=Nn2c(C)cc(C)c(C#N)c2=O)c1O
191	NS(=O)(=O)c1ccccc1[N+](=O)[O-]
16	CCC(C)c1ccccc1O (configuration not stated)
45.5	CC1CCC(C(C)C)C(OC(=O)C(=O)C=Cc2ccccc2)C1 (configuration not stated)
164	N#CCc1nn(-c2ccccc2)c(N)c1C#N
133 to 135	O=Cc1ccc(-c2ccc(-c3cccs3)s2)s1
169 to 170	COc1cccc(-c2ccc(C(=O)O)o2)c1
171	O=c1nc2ccccc2nc(C(F)(F)F)c1NNc1cccc2ccccc12
220	c1ccc(C2Nn3c(nnc3-c3cccnc3)S2)cc1 (configuration not stated)
110 to 113	OCc1ccc(-c2cc(C(F)(F)F)cc(C(F)(F)F)c2)o1
154	O=C(O)c1cc(Cl)ccc1Br
65 to 68	CC(=O)c1ccccc1NC=O
241 to 242	Cc1cc(C(=O)O)n[nH]1
232	NS(=O)(=O)c1cc2c(cc1Cl)N=C(CSCc1ccccc1)NS2(=O)=O
